According to ChEMBL document CHEMBL1201862, “PubChem BioAssay data set” (2004):
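Protocol summary: plate cells (96-well), add compound at 5 concentrations, incubate 48 h, interpolate endpoints linearly. GI50 = concentration required for 50% inhibition of growth.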 Activity calls are given as the source filed them. Rule as the data show it: active = GI50 up to about 1.1 µM and inactive = higher.

Key:
Assay in all cases: growth of human tumour cells (NCI), 48 h
SNB-19 = test system: SNB-19
UACC-62 = test system: UACC-62
RPMI-8226 = test system: RPMI-8226
MOLT-4 = test system: MOLT-4
NCI-H226 = test system: NCI-H226
HT-29 = test system: HT-29
KM12 = test system: KM12
OVCAR-8 = test system: OVCAR-8
786-0 = test system: 786-0
SK-MEL-28 = test system: SK-MEL-28
MDA-MB-231 = test system: MDA-MB-231
SNB-75 = test system: SNB-75
MCF7 = test system: MCF7
DU-145 = test system: DU-145
BT-549 = test system: BT-549
SF-539 = test system: SF-539
SF-268 = test system: SF-268
HOP-62 = test system: HOP-62
TK-10 = test system: TK-10
CAKI-1 = test system: CAKI-1
SK-MEL-5 = test system: SK-MEL-5
HL-60 = test system: HL-60
OVCAR-4 = test system: OVCAR-4
MDA-MB-435 = test system: MDA-MB-435
SN12C = test system: SN12C
UACC-257 = test system: UACC-257
UO-31 = test system: UO-31
LOX IMVI = test system: LOX IMVI
HCT-15 = test system: HCT-15
HCT-116 = test system: HCT-116
U-251 = test system: U-251
RXF 393 = test system: RXF 393
SF-295 = test system: SF-295
M14 = test system: M14
A549 = test system: A549
Malme-3M = test system: Malme-3M
IGROV-1 = test system: IGROV-1
EKVX = test system: EKVX
HCC 2998 = test system: HCC 2998
ACHN = test system: ACHN
NCI/ADR-RES = test system: NCI/ADR-RES
COLO 205 = test system: COLO 205
OVCAR-5 = test system: OVCAR-5
PC-3 = test system: PC-3
SW-620 = test system: SW-620
NCI-H522 = test system: NCI-H522
NCI-H460 = test system: NCI-H460
K562 = test system: K562
OVCAR-3 = test system: OVCAR-3
Hs-578T = test system: Hs-578T
CCRF-CEM = test system: CCRF-CEM
NCI-H23 = test system: NCI-H23
SR = test system: SR
SK-MEL-2 = test system: SK-MEL-2

In the case of `CCN(CCCOc1ccccc1)CCN(CC)CCCOc1ccccc1`, the GI50 (SNB-19) was 9.1 µM (inactive), the GI50 (UACC-62) was 14.2 µM (inactive) and the GI50 (RPMI-8226) was 0.249 µM (active). For the same molecule, the GI50 (MOLT-4) was 2.57 µM (inactive), the GI50 (NCI-H226) was 21.8 µM (inactive) and the GI50 (HT-29) was 7.59 µM (inactive). The GI50 (KM12) was 12.2 µM (inactive), the GI50 (OVCAR-8) was 15.7 µM (inactive) and the GI50 (786-0) was 18.4 µM (inactive). For the same molecule, the GI50 (SK-MEL-28) was 15.1 µM (inactive), the GI50 (MDA-MB-231) was 16.1 µM (inactive) and the GI50 (SNB-75) was 21.8 µM (inactive). The GI50 (MCF7) was 30.8 µM (inactive), the GI50 (DU-145) was 10.9 µM (inactive) and the GI50 (BT-549) was 14.3 µM (inactive). The GI50 (SF-539) was 10.7 µM (inactive), the GI50 (SF-268) was 12.6 µM (inactive) and the GI50 (HOP-62) was 20.4 µM (inactive). The GI50 (TK-10) was 12.7 µM (inactive), the GI50 (CAKI-1) was 16.4 µM (inactive) and the GI50 (SK-MEL-5) was 2.22 µM (inactive). The GI50 (HL-60) was 7.46 µM (inactive), the GI50 (OVCAR-4) was 18.6 µM (inactive) and the GI50 (MDA-MB-435) was 13 µM (inactive). The GI50 (SN12C) was 20 µM (inactive), the GI50 (UACC-257) was 16.2 µM (inactive) and the GI50 (UO-31) was 10.2 µM (inactive). For the same molecule, the GI50 (LOX IMVI) was 10.8 µM (inactive), the GI50 (HCT-15) was 10.4 µM and the GI50 (HCT-116) was 11.7 µM (inactive). For the same molecule, the GI50 (U-251) was 12.9 µM (inactive), the GI50 (RXF 393) was 13.4 µM (inactive) and the GI50 (SF-295) was 15.6 µM (inactive). For the same molecule, the GI50 (M14) was 11.5 µM (inactive), the GI50 (A549) was 12.8 µM (inactive) and the GI50 (Malme-3M) was 15.8 µM (inactive). For the same molecule, the GI50 (IGROV-1) was 10.9 µM (inactive), the GI50 (EKVX) was 12.7 µM (inactive) and the GI50 (HCC 2998) was 8.69 µM (inactive). For the same molecule, the GI50 (ACHN) was 16.3 µM (inactive), the GI50 (NCI/ADR-RES) was 20 µM (inactive) and the GI50 (COLO 205) was 5.86 µM (inactive). The GI50 (OVCAR-5) was 17 µM (inactive), the GI50 (PC-3) was 2.52 µM (inactive) and the GI50 (SW-620) was 20.8 µM (inactive). For the same molecule, the GI50 (NCI-H522) was 14.2 µM (inactive), the GI50 (NCI-H460) was 8.38 µM (inactive) and the GI50 (K562) was 3.1 µM (inactive). The GI50 (OVCAR-3) was 14.8 µM (inactive), the GI50 (Hs-578T) was 13.5 µM (inactive) and the GI50 (CCRF-CEM) was 0.71 µM (active). For the same molecule, the GI50 (NCI-H23) was 18.8 µM (inactive), the GI50 (SR) was 8.26 µM (inactive) and the GI50 (SK-MEL-2) was 17.9 µM (inactive).
